Test results published in patent US20230151309A1, “PLANT-BASED HYDROALCOHOLIC FORMULATIONS FOR IMPROVING LIVER HEALTH” (priority 2021, published 2023).
“Also recorded” adds a separate entry of the source.

Assays:
[1] = EGCG level in the botanical-infused alcoholic composition by LC-MS/MS (EGCG stability); assay type: physicochemical; conditions: final alcoholic composition, pH below 4.65
Description: Intracellular ATP was expressed as % ATP vs. Vehicle Control. Data points represent mean±SEM of N=3 replicates.
The samples were tested by LC-MS/MS using a Waters Acquity UPLC system in-line with a Waters Xevo TO-S mass spectrometer via an electrospray interface. An EGCG powdered standard was purchased from Sigma-Aldrich. The EGCG standard was prepared as a 1 mg/mL solution in PBS containing 0.2% ascorbic acid and 0.005% EDTA to calculate the standard curve. EGCG was spiked into intestinal media at a 5% ratio of standard to media (% v/v). EGCG internal standard (IS) was prepared as a 200 ng/ml solution also using PBS containing 0.2% ascorbic acid and 0.005% EDTA. Ten μL of EGCG IS was added to 25 μL of EGCG standard, vortex mixed, and 2× extracted with 350 μL of ethyl acetate. […]
EGCG and samples of the alcoholic beverage composition were separated using a 1.0 mm×100 mm Waters HSS T3 column with 0.3% acetic acid/HO as mobile phase A and 0.3% acetic acid/acetonitrile as mobile. phase B. For gradient elution, initial B was 1%, increased to 95% Bat 2 minutes, 95% Bat 4 minutes, and back to 1% Bat 4.5 minutes. […] Data was analyzed using Waters Targetlynx application software and automatically exported as a CSV file for reporting.
EGCG was detected in the final alcoholic composition. […]

intestinal tissue = experiment: Intestinal tissue viability by MTT assay (HuDMOP); assay type: cell-based, human; conditions: 100 μL, 24 hr, % viable vs. vehicle control
Description: (§1) The model consisted of human 3D epidermal model (Epiltestinal tissue from MarTek) linked to HepG2 cells (Liver) linked by unidirectional simulated blood flow. Simulated blood consisted of saline with human serum albumin.
Diluted ethanol (EtOH) alone or a composition of the present invention diluted to the same level as the EtOH alone test are applied to the apical side of the intestine chamber at the start of the experiment. […] The health of the intestinal tissue was measured with a MTT assay. Pure EGCG was also applied as a control. Tissues were dosed with 100 μL of the solutions and were incubated at 37° C. with 5% CO2 for 24 hr. Cell viability was expressed at % viable vs. vehicle control. Data points represent mean±SEM of N=2 replicates.

[2] = EGCG kinetics in two-compartment HuDMOP (intestine to liver to perfusate), LC-MS/MS; assay type: in vitro ADME, human
Description: The human dynamic multiple organ plate (HuDMOP) developed by IONTOX (U.S. Pat. No. 9,631,167 B2) was used for testing. This plate is an accepted and unique state-of-the-art in vitro platform for evaluating drugs and chemicals. The FDA recognizes such in vitro models that provide comparative information of relative toxicity between an FDA approved compound and a new submission or in vitro data that focuses on mechanism. The HuDMOP system allows collection of intestinal absorption data, pharmacokinetic data, safety, and efficacy in a single model and can feature up to 6 organ compartments. Flow between the compartments is controlled through selection of dialysis membrane appropriate for the relevant organ systems, pressures, and membrane areas. The HuDMOP system is also used to generate data to support efficacy claims for botanicals.
Simulated blood consisted of saline with human serum albumin.
Epigallocatechin gallate (EGCG) from the novel composition was used to track its intestinal permeability, its movement into simulated blood and delivery to the liver. EGCG content was measured by LC-MS/MS (FIG. 6).

Fa2N-4 cells = conditions: human, 24 h
Description: Maximum Tolerated Dose is indicated as the % EtOH where viability as assayed using ATP levels diminished to below 50%.
Samples of botanical-infused alcoholic composition were prepared as follows. The samples were diluted to in deionized water to bring the alcohol concentration down to 8%. […] Intracellular ATP was expressed as % ATP vs. Vehicle Control. Data points represent mean±SEM of N=3 replicates.
The samples were also diluted to 6 and 2% alcohol.

[3] = test system: NADPH Quinone Dehydrogenase 1 (NQO1); conditions: liver cells, 12 and 24 hr post exposure
Description: as §1
(§2) Total RNA from the liver cells was obtained following the 12 and 24 hr time points post exposure to look at specific gene expression (NQO1, HMOX1, GSR) that are part of a group that protect the cell from oxidative stress and inflammation. An increase in fold change >2 is typically considered biologically relevant.
RNA was extracted from liver cells using the RNeasy Mini kit along with Proteinase Kand DNase I digestion to remove proteins and gDNA. DNase I was purchased from Qiagen. Total RNA was quantified using the NanoDrop 2000. The RNA obtained was used to measure the expression of the above target genes by RT-qPCR. 10.10. TaqMan* fast virus 1-step master mix (Thermo Fisher) was used. One-Step RT-qPCR was performed using the QuantStudio 5 PCR Instrument from Thermo Fisher and by following the manufacturer's recommended cycling protocol. All primer/probe sets were obtained from Thermo Fisher.

Heme oxygenase-1 (HMOX1) = conditions: liver cells, 12 and 24 hr post exposure
Description: as §1
Total RNA from the liver cells was obtained following the 12 and 24 hr time points post exposure to look at specific gene expression (NQO1, HMOX1, GSR) that are part of a group that protect the cell from oxidative stress and inflammation.
RNA was extracted from liver cells using the RNeasy Mini kit along with Proteinase Kand DNase I digestion to remove proteins and gDNA. DNase I was purchased from Qiagen. Total RNA was quantified using the NanoDrop 2000. The RNA obtained was used to measure the expression of the above target genes by RT-qPCR. […] TaqMan* fast virus 1-step master mix (Thermo Fisher) was used. One-Step RT-qPCR was performed using the QuantStudio 5 PCR Instrument from Thermo Fisher and by following the manufacturer's recommended cycling protocol. All primer/probe sets were obtained from Thermo Fisher.

[4] = test system: Glutathione Reductase (GSR); conditions: liver cells, 12 and 24 hr post exposure
Description: as §1, §2
RNA was extracted from liver cells using the RNeasy Mini kit along with Proteinase Kand DNase I digestion to remove proteins and gDNA. […] Total RNA was quantified using the NanoDrop 2000. The RNA obtained was used to measure the expression of the above target genes by RT-qPCR. […] TaqMan* fast virus 1-step master mix (Thermo Fisher) was used. One-Step RT-qPCR was performed using the QuantStudio 5 PCR Instrument from Thermo Fisher and by following the manufacturer's recommended cycling protocol. All primer/probe sets were obtained from Thermo Fisher.

HepG2 liver cells = experiment: Reactive oxygen species (DCFDA/H2DCFDA Cellular ROS Assay Kit) in liver cells; assay type: cell-based; conditions: HepG2, 24 hours; ethanol at 2, 3 and 4%
Description: Reactive Oxygen Species were measured using the DCFDA/H2DCFDA Cellular ROS Assay Kit from Abeam.
Liver stress was measured by measuring the amount of reactive oxygen species (ROS) produced after exposure to the alcoholic composition. HepG2 liver cells were plated and grown overnight. […] Then the cells were exposed to the Test articles for 24 hours at 37° C. with 5% CO2. […] Amount of ROS was measured using the DCFDA/H2DCFDA Cellular ROS Assay Kit from Abeam.
Data are expressed as Fold Change vs. Negative Control. Bars represent mean±SEM of three replicate samples.

| NQO1 gene expression [3] | HMOX1 gene expression (Heme oxygenase-1 (HMOX1)) | GSR gene expression [4] | Compound | EGCG stability in the composition [1] | health of the intestinal tissue (cell viability, MTT) (intestinal tissue) | time EGCG starts to appear in the lower basolateral chamber ([2]; after application of composition batch 1 to intestinal tissue) [h] | time EGCG appears in the liver ([2]; after applying composition batch 1 to the intestinal tissue) [h] | EGCG in perfusate after processing in the liver compartment ([2]; composition batch 1) | EGCG maximum concentration (Cmax) ([2]; composition batch 1, after passing the intestinal membrane) | time of EGCG peak in basolateral chamber ([2]; composition batch 1, amount constant until 24 hours) [h] | Maximum Tolerated Dose (ethanol causing 50% response in % ATP) (Fa2N-4 cells) [%] | increase in ROS, Fold Change vs. Negative Control (HepG2 liver cells) [fold] |
| --- | --- | --- | --- | --- | --- | --- | --- | --- | --- | --- | --- | --- |
| – | – | – | O=C(O[C@@H]1Cc2c(O)cc(O)cc2O[C@@H]1c1cc(O)c(O)c(O)c1)c1cc(O)c(O)c(O)c1 [EGCG, epigallocatechin gallate] | stable | not affected; also recorded: no cytotoxic effect | 2 | 6 | remains in the perfusate | about 1400 ng/ml | 12 | – | – |
| no increase | induces an increase | does not produce an increase | CCO [ethanol] | – | not affected | – | – | – | – | – | 8 | – |
| – | – | – | CC(C)(C)OO [positive control, Tert-butyl hydroperoxide] | – | – | – | – | – | – | – | – | 22 |
